Experimental data as given in patent publication US9616037B2, “Aryl-phenyl-sulfonamido-cycloalkyl compounds and their use” (PIMCO 2664 Limited, priority 2008, dated 2017).
Converted amounts (≈) assume the structure as drawn.

System: J774 macrophages
Experiment: Alamar Blue macrophage J774 viability assay
Type: cell-based
Conditions: J774 cells, 72 hours with compound, Alamar Blue readout
Protocol: (§1) Initial screening of candidate compounds was performed using in vitro assays to determine potency, metabolic stability and solubility in biologically relevant fluids. Potency was assessed using a viability assay based on the survival of the J774 macrophage cell line. Macrophages are closely related to osteoclasts and have been used previously as a model system for osteoclast survival (see, e.g., Luckman et al., 1998). Like osteoclasts, J774 macrophages are dependent on continued NFκB activation for survival, thereby providing a valuable screen for compounds with anti-inflammatory activity. Metabolic stability was measured by determining the rate of disappearance of compound in the presence of human liver microsomal preparations, as quantified by LC-MS/MS. Solubility was measured by equilibration of the compound in fasted state simulated intestinal fluid (FaSSIF) and quantified by HPLC.
In vitro potency as anti-inflammatory agents was determined for a number of APSAC compounds by incubation with J774 macrophages and subsequent determination of cell viability.
J774 cells were plated at 10^4 cells per well in 100 μL αMEM (α Modified Eagle Medium) in 96-well plates and grown overnight. The next day, test compounds were added to the cultures, and cultures were continued for another 72 hours. At the end of the culture period, cell survival was determined using an Alamar Blue assay as previously described (see, e.g., Nociari et al., 1998).
Alamar Blue is an oxidation-reduction sensitive indicator. The dye itself is in the oxidised state, which is blue and non-fluorescent. The dye can accept electrons from reducing species, such as NADPH and FADH, to form a reduced dye species, which is red and fluorescent. Thus the transformation from oxidised form to reduced form can be measured by fluorimetric or colourimetric means. For fluorescence measurements, 530-560 nm excitation and 590 nm emission wavelengths are typically used. For colourimetric measurements, absorbance at 570 nm (reduced form) and 600 nm (oxidised form) is typically measured. A simple calculation is performed to determine the relative quantities of the two species.
A high ratio of the reducing species, NADPH and FADH, to the corresponding oxidised species, NADP and FAD, is an indicator that cells are proliferating and viable. A low ratio indicates cells that are quiescent or non-viable.
Briefly, Alamar Blue (Biosource International) was added undiluted to the each well (1:10 v/v, 10 μL). The plate was incubated at 37° C. for 3-4 hours and the fluorescence was measured at 590 nm, with a 25 nm bandwidth. A high reading indicated cells with normal viability, and a low reading indicated cells that have been damaged and are no longer proliferating normally. The controls gave a high fluorescence reading, indicating a high number of live, healthy cells. A potent test compound gave a low fluorescence reading. The average results for each test compound (n=5) were expressed as a percent (%) of the average control value.
Addition of Compounds. All of the compounds studied were made up as 100 mM solutions in DMSO. These stock solutions were then diluted 1000-10000× in culture medium (αMEM). From these 100 μM or 10 μM solutions, convenient quantities (3-33 μL) were added directly to the wells so as to give the desired final compound concentration.
For `O=S(=O)(N[C@H]1CC[C@H](O)CC1)c1ccc(-c2cncnc2)cc1` [ABD861, N-(trans-4-Hydroxycyclohexyl)-4-(pyrimidin-5-yl)benzenesulfonamide], the IC50 was “Inactive”.

Same assay, conditions: J774 cells, 72 hours with compound, Alamar Blue readout; read-out: IC50
`O=S(=O)(Nc1cccc(CO)c1)c1ccc(-c2ccc(Cl)cc2F)cc1` [ABD575, reference compound] gave an IC50 of 400 nM.

Same assay, conditions: Mus musculus; J774 cells, 72 hours with compound, Alamar Blue readout; read-out: IC50
Compound `O=S(=O)(Nc1cccc(CO)c1)c1ccc(-c2ccc(F)cc2F)cc1` [ABD456, 2′,4′-difluoro-biphenyl-4-sulfonic acid (3-hydroxymethyl-phenyl)-amide, reference compound] has an IC50 of 250 nM. For `O=S(=O)(Nc1ccc(CO)cc1)c1ccc(-c2ccc(F)cc2F)cc1` [ABD466, 2′,4′-difluoro-biphenyl-4-sulfonic acid (4-hydroxymethyl-phenyl)-amide, reference compound], the IC50 was 3000 nM. Work on `O=S(=O)(N[C@H]1CC[C@H](O)CC1)c1ccc(-c2ccc(OC(F)(F)F)cc2)c(F)c1` [ABD665, 2-Fluoro-N-(trans-4-hydroxycyclohexyl)-4′-(trifluoromethoxy)biphenyl-4-sulfonamide] yielded an IC50 of 4900 nM. `O=S(=O)(N[C@H]1CC[C@H](O)CC1)c1ccc(-c2ccc(F)cc2F)cc1Cl` [ABD705, 3-Chloro-2′,4′-difluoro-N-(trans-4-hydroxycyclohexyl)biphenyl-4-sulfonamide] showed an IC50 of 830 nM. Compound `COc1ccc(-c2ccc(S(=O)(=O)N[C@H]3CC[C@H](O)CC3)cc2F)cc1` [ABD710, 2-Fluoro-N-(trans-4-hydroxycyclohexyl)-4′-methoxybiphenyl-4-sulfonamide] has an IC50 of 1980 nM. `O=S(=O)(N[C@H]1CC[C@H](O)CC1)c1ccc(-c2ccc(Cl)c(C(F)(F)F)c2)cc1` [ABD712, 4′-Chloro-N-(trans-4-hydroxycyclohexyl)-3′-(trifluoromethyl)biphenyl-4-sulfonamide] gave an IC50 of 5460 nM. In the case of `N#Cc1ccc(-c2ccc(S(=O)(=O)N[C@H]3CC[C@H](O)CC3)c(Cl)c2)cc1` [ABD732, 3-Chloro-4′-cyano-N-(trans-4-hydroxycyclohexyl)biphenyl-4-sulfonamide], the IC50 is reported as 4320 nM. Work on `Cc1cc(S(=O)(=O)N[C@H]2CC[C@H](O)CC2)ccc1-c1ccc(F)cc1F` [ABD735, 2′,4′-Difluoro-N-(trans-4-hydroxycyclohexyl)-2-methylbiphenyl-4-sulfonamide] yielded an IC50 of 90 nM. In the case of `Cc1cc(S(=O)(=O)N[C@H]2CC[C@H](O)CC2)ccc1-c1ccc(OC(F)(F)F)cc1` [ABD742, N-(trans-4-Hydroxycyclohexyl)-2-methyl-4′-(trifluoromethoxy)biphenyl-4-sulfonamide], the IC50 is reported as 770 nM. `O=S(=O)(N[C@H]1CC[C@H](O)CC1)c1ccc(-c2ccc(Cl)cc2Cl)cc1OC(F)(F)F` [ABD756, 2′,4′-Dichloro-N-(trans-4-hydroxycyclohexyl)-3-(trifluoromethoxy)biphenyl-4-sulfonamide] showed an IC50 of 2180 nM. With `CNC1CCC(NS(=O)(=O)c2ccc(-c3ccc(F)cc3F)cc2)CC1` (centres unmarked) [ABD816, 2′,4′-Difluoro-N-(4-(methylamino)cyclohexyl)biphenyl-4-sulfonamide] the IC50 was 800 nM. Work on `CCNC1CCC(NS(=O)(=O)c2ccc(-c3ccc(F)cc3F)cc2)CC1` (centres unmarked) [ABD817, N-(4-(Ethylamino)cyclohexyl)-2′,4′-difluorobiphenyl-4-sulfonamide] yielded an IC50 of less than 1000 nM. For `CCN(CC)C1CCC(NS(=O)(=O)c2ccc(-c3ccc(F)cc3F)cc2)CC1` (centres unmarked) [ABD819, N-(4-(Diethylamino)cyclohexyl)-2′,4′-difluorobiphenyl-4-sulfonamide], the IC50 was 2400 nM. For `O=S(=O)(NC1CCC(N2CCCC2)CC1)c1ccc(-c2ccc(F)cc2F)cc1` (centres unmarked) [ABD820, 2′,4′-Difluoro-N-(4-(pyrrolidin-1-yl)cyclohexyl)biphenyl-4-sulfonamide], the IC50 was 2500 nM. `O=S(=O)(NC1CCC(N2CCOCC2)CC1)c1ccc(-c2ccc(F)cc2F)cc1` (centres unmarked) [ABD821, 2′,4′-Difluoro-N-(4-morpholinocyclohexyl)biphenyl-4-sulfonamide] gave an IC50 greater than 10000 nM. For `CCN(C)C1CCC(NS(=O)(=O)c2ccc(-c3ccc(F)cc3F)cc2)CC1` (centres unmarked) [ABD822, N-(4-(Ethyl(methyl)amino)cyclohexyl)-2′,4′-difluorobiphenyl-4-sulfonamide], the IC50 was 6980 nM. Compound `CNC[C@H]1CC[C@@H](NS(=O)(=O)c2ccc(-c3ccc(F)cc3F)cc2)CC1` [ABD824, 2′,4′-Difluoro-N-(cis-4-((methylamino)methyl)cyclohexyl)biphenyl-4-sulfonamide] has an IC50 of 7200 nM. With `CN(C)C[C@H]1CC[C@@H](NS(=O)(=O)c2ccc(-c3ccc(F)cc3F)cc2)CC1` [ABD826, N-(cis-4-((Dimethylamino)methyl)cyclohexyl)-2′,4′-difluorobiphenyl-4-sulfonamide] the IC50 was 1000 nM. `O=S(=O)(N[C@H]1CC[C@H](O)CC1)c1ccc(-c2ncc(Cl)cc2Cl)cc1` [ABD836, 4-(3,5-Dichloropyridin-2-yl)-N-(trans-4-hydroxycyclohexyl) benzene sulfonamide] gave an IC50 of 280 nM. `O=S(=O)(N[C@H]1CC[C@H](O)CC1)c1ccc(-c2ncc(Cl)cn2)cc1` [ABD837, 4-(5-Chloropyrimidin-2-yl)-N-(trans-4-hydroxycyclohexyl)benzenesulfonamide] showed an IC50 of 8880 nM. `O=S(=O)(N[C@H]1CC[C@@H](NCC(F)(F)F)CC1)c1ccc(-c2ccc(F)cc2F)cc1` [ABD864, 2′,4′-Difluoro-N-(cis-4-(2,2,2-trifluoroethylamino)cyclohexyl)biphenyl-4-sulfonamide] showed an IC50 greater than 10000 nM. With `O=S(=O)(N[C@H]1CC[C@H](NCC(F)(F)F)CC1)c1ccc(-c2ccc(F)cc2F)cc1` [ABD865, 2′,4′-Difluoro-N-(trans-4-(2,2,2-trifluoroethylamino)cyclohexyl)biphenyl-4-sulfonamide] the IC50 was 5900 nM.

System: not listed separately
Experiment: Thermodynamic aqueous solubility in fasted state simulated intestinal fluid (FaSSIF)
Type: physicochemical
Conditions: equilibrated at 25° C. for 24 hours, HPLC
Protocol: as §1, with “Macrophages are closely related to osteoclasts and have been used previously as a model system for osteoclast survival (see, e.g., Luckman et al., 1998).” left out
Thermodynamic aqueous solubility was measured by equilibration of a number of APSAC compounds, in the solid state, with fasted state simulated intestinal fluid (FaSSIF) and quantified by HPLC. Measurement of solubility in FaSSIF provides a valuable model for the prediction of drug dissolution following oral administration.
The pH was adjusted to 6.5 using 1 M NaOH solution.
0.6 mL of a solution containing 100 mg/mL lecithin in methylene chloride was added. The methylene chloride was eliminated under vacuum at about 40° C. The vacuum was drawn for 15 minutes at 250 mbar, followed by 15 minutes at 100 mbar. […] After cooling to room temperature, the solution was then adjusted to 100 mL with blank FaSSIF.
The suspension was equilibrated at 25° C. for 24 hours, and then the pH was measured. The suspension was then filtered through a glass fibre C filter into a 96-well plate. The filtrate was then diluted by a factor of 100. Quantification was made by HPLC with reference to a standard solution of compound at approximately 0.1 mg/mL in DMSO. Different volumes of the standard, diluted and undiluted sample solutions were injected. […] Analysis was performed on an Agilent HP1100 series system equipped with a diode array detector and using ChemStation software vB.02.01-SR1.
Compound `O=S(=O)(Nc1cccc(CO)c1)c1ccc(-c2ccc(F)cc2F)cc1` [ABD456, 2′,4′-difluoro-biphenyl-4-sulfonic acid (3-hydroxymethyl-phenyl)-amide, reference compound] has a Solubility of 40 µg/mL (≈ 107 µM). Compound `O=S(=O)(Nc1cccc(CO)c1)c1ccc(-c2ccc(Cl)cc2F)cc1` [ABD575, reference compound] has a Solubility of 70 µg/mL (≈ 179 µM).
